In patent publication US9006250B2, “4-amino-6-(heterocyclic)picolinates and 6-amino-2-(heterocyclic)pyrimidine-4-carboxylates and their use as herbicides” (Dow AgroSciences, LLC, priority 2013, dated 2015):

Columns and labels:
Test in all cases: Post-Emergent Test II herbicidal activity
Format in all cases: in vivo
[1] = tested on: AMARE: redroot pigweed (Amaranthus retroflexus); conditions: post-emergence, 336 h, 14 days, read-out: Visual Growth Reduction (%) 14 Days After Application AMARE
Method: (§1) Post-Emergent Test II: Seeds or nutlets of the desired test plant species were planted in Sun Gro Metro-Mix® 360 planting mixture, which typically has a pH of 6.0 to 6.8 and an organic matter content of about 30 percent, in plastic pots with a surface area of 64 square centimeters. When required to ensure good germination and healthy plants, a fungicide treatment and/or other chemical or physical treatment was applied. The plants were grown for 7-21 d in a greenhouse with an approximate 15 h photoperiod which was maintained at about 23-29° C. during the day and 22-28° C. during the night. Nutrients and water were added on a regular basis and supplemental lighting was provided with overhead metal halide 1000-Watt lamps as necessary. The plants were employed for testing when they reached the first or second true leaf stage.
(§2) A weighed amount, determined by the highest rate to be tested, of each test compound was placed in a 25 mL glass vial and was dissolved in 4 mL of a 97:3 v/v mixture of acetone and DMSO to obtain concentrated stock solutions. […] The concentrated stock solutions obtained were diluted with 20 mL of an aqueous mixture containing acetone, water, isopropyl alcohol, DMSO, Atplus 411F crop oil concentrate, and Triton® X-155 surfactant in a 48.5:39:10:1.5:1.0:0.02 v/v ratio to obtain spray solutions containing the highest application rates. Additional application rates were obtained by serial dilution of 12 mL of the high rate solution into a solution containing 2 mL of 97:3 v/v mixture of acetone and DMSO and 10 mL of an aqueous mixture containing acetone, water, isopropyl alcohol, DMSO, Atplus 411F crop oil concentrate, and Triton X®-155 surfactant in a 48.5:39:10:1.5:1.0:0.02 v/v ratio to obtain ½×, ¼×, ⅛× and 1/16× rates of the high rate. Compound requirements are based upon a 12 mL application volume at a rate of 187 liters per hectare (L/ha). Formulated compounds were applied to the plant material with an overhead Mandel track sprayer equipped with 8002E nozzles calibrated to deliver 187 L/ha over an application area of 0.503 square meters at a spray height of 18 inches […] above the average plant canopy height. Control plants were sprayed in the same manner with the solvent blank.
(§3) The treated plants and control plants were placed in a greenhouse as described above and watered by subirrigation to prevent wash-off of the test compounds. After 14 d, the condition of the test plants as compared with that of the untreated plants was determined visually and scored on a scale of 0 to 100 percent where 0 corresponds to no injury and 100 corresponds to complete kill.

[2] = tested on: CYPES: yellow nutsedge (Cyperus esculentus); conditions: post-emergence, 336 h, 14 days, read-out: Visual Growth Reduction (%) 14 Days After Application CYPES; for pest or weed control at 35 g/ha: 35 g ai/ha; for pest or weed control at 70 g/ha: 70 g ai/ha; for pest or weed control at 140 g/ha: 140 g ai/ha
Method: as §1, §2, §3

[3] = tested on: ECHCG: barnyardgrass (Echinochloa crus-galli); conditions: post-emergence, 336 h, 14 days, read-out: Visual Growth Reduction (%) 14 Days After Application ECHCG; for pest or weed control at 35 g/ha: 35 g ai/ha; for pest or weed control at 70 g/ha: 70 g ai/ha; for pest or weed control at 140 g/ha: 140 g ai/ha
Method: as §1, §2, §3

[4] = tested on: SETFA: giant foxtail (Setaria faberi); conditions: post-emergence, 336 h, 14 days, read-out: Visual Growth Reduction (%) 14 Days After Application SETFA; for pest or weed control at 35 g/ha: 35 g ai/ha; for pest or weed control at 70 g/ha: 70 g ai/ha; for pest or weed control at 140 g/ha: 140 g ai/ha
Method: as §1, §2, §3

[5] = tested on: HELAN: sunflower (Helianthus annuus); conditions: post-emergence, 336 h, 14 days, read-out: Visual Growth Reduction (%) 14 Days After Application HELAN; for pest or weed control at 35 g/ha: 35 g ai/ha; for pest or weed control at 70 g/ha: 70 g ai/ha; for pest or weed control at 140 g/ha: 140 g ai/ha
Method: as §1, §2, §3

[6] = tested on: EPHHL: wild poinsettia (Euphorbia heterophylla); conditions: post-emergence, 336 h, 14 days, read-out: Visual Growth Reduction (%) 14 Days After Application EPHHL; for pest or weed control at 35 g/ha: 35 g ai/ha; for pest or weed control at 70 g/ha: 70 g ai/ha; for pest or weed control at 140 g/ha: 140 g ai/ha
Method: as §1, §2, §3

[7] = tested on: TRZAS: wheat, spring (Triticum aestivum); conditions: post-emergence, 336 h, 14 days, read-out: Visual Growth Reduction (%) 14 Days After Application TRZAS; for pest or weed control at 35 g/ha: 35 g ai/ha; for pest or weed control at 70 g/ha: 70 g ai/ha; for pest or weed control at 140 g/ha: 140 g ai/ha
Method: as §1, §2, §3

[8] = tested on: ZEAMX: maize, corn (Zea mays); conditions: post-emergence, 336 h, 14 days, read-out: Visual Growth Reduction (%) 14 Days After Application ZEAMX; for pest or weed control at 35 g/ha: 35 g ai/ha; for pest or weed control at 70 g/ha: 70 g ai/ha; for pest or weed control at 140 g/ha: 140 g ai/ha
Method: as §1, §2, §3

[9] = tested on: CHEAL: lambsquarters (Chenopodium album); conditions: post-emergence, 336 h, 14 days, read-out: Visual Growth Reduction (%) 14 Days After Application CHEAL; for pest or weed control at 35 g/ha: 35 g ai/ha; for pest or weed control at 70 g/ha: 70 g ai/ha; for pest or weed control at 140 g/ha: 140 g ai/ha
Method: as §1, §2, §3

[10] = tested on: BRSNN: oilseed rape, canola (Brassica napus); conditions: post-emergence, 336 h, 14 days, read-out: Visual Growth Reduction (%) 14 Days After Application BRSNN; for pest or weed control at 35 g/ha: 35 g ai/ha; for pest or weed control at 70 g/ha: 70 g ai/ha; for pest or weed control at 140 g/ha: 140 g ai/ha
Method: as §1, §2, §3

[11] = tested on: ABUTH: velvetleaf (Abutilon theophrasti); conditions: post-emergence, 336 h, 14 days, read-out: Visual Growth Reduction (%) 14 Days After Application ABUTH; for pest or weed control at 35 g/ha: 35 g ai/ha; for pest or weed control at 70 g/ha: 70 g ai/ha; for pest or weed control at 140 g/ha: 140 g ai/ha
Method: as §1, §2, §3

[12] = tested on: ORYSA: rice (Oryza sativa); conditions: post-emergence, 336 h, 14 days, read-out: Visual Growth Reduction (%) 14 Days After Application ORYSA; for pest or weed control at 35 g/ha: 35 g ai/ha; for pest or weed control at 70 g/ha: 70 g ai/ha; for pest or weed control at 140 g/ha: 140 g ai/ha
Method: as §1, §2, §3

| SMILES | pest or weed control at 35 g/ha [2] [%] | pest or weed control at 70 g/ha [2] [%] | pest or weed control at 140 g/ha [2] [%] | pest or weed control at 35 g/ha [3] [%] | pest or weed control at 70 g/ha [3] [%] | pest or weed control at 140 g/ha [3] [%] | pest or weed control at 35 g/ha [4] [%] | pest or weed control at 70 g/ha [4] [%] | pest or weed control at 140 g/ha [4] [%] | pest or weed control at 35 g/ha [5] [%] | pest or weed control at 70 g/ha [5] [%] | pest or weed control at 140 g/ha [5] [%] | pest or weed control at 35 g/ha [6] [%] | pest or weed control at 70 g/ha [6] [%] | pest or weed control at 140 g/ha [6] [%] | pest or weed control at 35 g/ha [7] [%] | pest or weed control at 70 g/ha [7] [%] | pest or weed control at 140 g/ha [7] [%] | pest or weed control at 35 g/ha [8] [%] | pest or weed control at 70 g/ha [8] [%] | also measured |
| --- | --- | --- | --- | --- | --- | --- | --- | --- | --- | --- | --- | --- | --- | --- | --- | --- | --- | --- | --- | --- | --- |
| COC(=O)c1nc(-c2ccc3nsnc3c2F)cc(N)c1Cl [Compound 14] | 0 to 29 | 0 to 29 | 0 to 29 | 0 to 29 | 0 to 29 | 0 to 29 | 0 to 29 | 0 to 29 | 0 to 29 | 0 to 29 | 0 to 29 | 30 to 44 | 60 to 74 | 85 to 94 | 95 to 100 | 0 to 29 | 0 to 29 | 0 to 29 | 0 to 29 | 0 to 29 | pest or weed control at 35 g/ha ([1]; 35 g ai/ha): 30 to 44%; pest or weed control at 70 g/ha ([1]; 70 g ai/ha): 30 to 44%; pest or weed control at 140 g/ha ([1]; 140 g ai/ha): 45 to 59%; pest or weed control at 140 g/ha [8]: 0 to 29%; pest or weed control at 35 g/ha [9]: 45 to 59%; pest or weed control at 70 g/ha [9]: 60 to 74%; pest or weed control at 140 g/ha [9]: 75 to 84%; pest or weed control at 35 g/ha [10]: 0 to 29%; pest or weed control at 70 g/ha [10]: 0 to 29%; pest or weed control at 140 g/ha [10]: 0 to 29%; pest or weed control at 35 g/ha [11]: 0 to 29%; pest or weed control at 70 g/ha [11]: 0 to 29%; pest or weed control at 140 g/ha [11]: 0 to 29%; pest or weed control at 35 g/ha [12]: 0 to 29%; pest or weed control at 70 g/ha [12]: 0 to 29%; pest or weed control at 140 g/ha [12]: 0 to 29% |
| COc1cc2nonc2cc1-c1cc(N)c(Cl)c(C(=O)O)n1 [Compound 5, 4-Amino-3-chloro-6-(6-methoxybenzo[c][1,2,5]oxadiazol-5-yl)picolinic acid] | 0 to 29 | 0 to 29 | 0 to 29 | 0 to 29 | 0 to 29 | 0 to 29 | 0 to 29 | 0 to 29 | 0 to 29 | 0 to 29 | 0 to 29 | 0 to 29 | 0 to 29 | 0 to 29 | 0 to 29 | 0 to 29 | 0 to 29 | 0 to 29 | 0 to 29 | 0 to 29 | pest or weed control at 140 g/ha [8]: 0 to 29%; pest or weed control at 35 g/ha [9]: 0 to 29%; pest or weed control at 70 g/ha [9]: 0 to 29%; pest or weed control at 140 g/ha [9]: 0 to 29%; pest or weed control at 35 g/ha [10]: 0 to 29%; pest or weed control at 70 g/ha [10]: 0 to 29%; pest or weed control at 140 g/ha [10]: 0 to 29%; pest or weed control at 35 g/ha [11]: 0 to 29%; pest or weed control at 70 g/ha [11]: 0 to 29%; pest or weed control at 140 g/ha [11]: 0 to 29%; pest or weed control at 35 g/ha [12]: 0 to 29%; pest or weed control at 70 g/ha [12]: 0 to 29%; pest or weed control at 140 g/ha [12]: 0 to 29% |
